{"source": "paper PMC6540285", "about": "“Evaluation of Protein Kinase Inhibitors with PLK4 Cross-Over Potential in a Pre-Clinical Model of Cancer” (International Journal of Molecular Sciences, 2019)", "key": {"MYO3B (MYO3 beta)": {"target": "MYO3B (MYO3 beta) (Homo sapiens, UniProt Q8WXR4)", "assay": "SelectScreen kinase profiling, LanthaScreen binding"}, "RPS6KA6 (RSK4)": {"target": "RPS6KA6 (RSK4) (Homo sapiens, UniProt Q9UK32)", "assay": "SelectScreen kinase profiling, ZLYTE", "format": "biochemical"}, "BMPR2": {"target": "BMPR2 (Homo sapiens, UniProt Q13873)", "assay": "SelectScreen kinase profiling, LanthaScreen binding", "conditions": "BMPR2, 10 µM"}, "CSK": {"target": "CSK (Homo sapiens, UniProt P41240)", "assay": "SelectScreen kinase profiling, ZLYTE", "format": "biochemical"}, "TYK2": {"target": "TYK2 (Homo sapiens, UniProt P29597)", "assay": "SelectScreen kinase profiling, ZLYTE", "format": "biochemical", "conditions": "TYK2, 10 µM", "excerpt": "(§1) Kinase Technology % Inhibition Avg Kinase Technology % Inhibition Avg […]"}, "STK24 (MST3)": {"target": "STK24 (MST3) (Homo sapiens, UniProt Q9Y6E0)", "assay": "SelectScreen kinase profiling, ZLYTE", "format": "biochemical", "excerpt": "as §1"}, "TEK (TIE2) Y897S": {"target": "TEK (TIE2) Y897S (Homo sapiens, UniProt Q02763, Y897S)", "assay": "SelectScreen kinase profiling, ZLYTE", "format": "biochemical", "excerpt": "as §1"}, "STK4 (MST1)": {"target": "STK4 (MST1) (Homo sapiens, UniProt Q13043)", "assay": "SelectScreen kinase profiling, ZLYTE", "format": "biochemical", "excerpt": "as §1"}, "TNK1": {"target": "TNK1 (Homo sapiens, UniProt Q13470)", "assay": "SelectScreen kinase profiling, ZLYTE", "format": "biochemical", "conditions": "TNK1, 10 µM", "excerpt": "as §1"}, "STK3 (MST2)": {"target": "STK3 (MST2) (Homo sapiens, UniProt Q13188)", "assay": "SelectScreen kinase profiling, ZLYTE", "format": "biochemical", "excerpt": "as §1"}, "STK25 (YSK1)": {"target": "STK25 (YSK1) (Homo sapiens, UniProt O00506)", "assay": "SelectScreen kinase profiling, ZLYTE", "format": "biochemical", "excerpt": "as §1"}, "TYRO3 (RSE)": {"target": "TYRO3 (RSE) (Homo sapiens, UniProt Q06418)", "assay": "SelectScreen kinase profiling, ZLYTE", "format": "biochemical", "excerpt": "as §1"}, "SYK": {"target": "SYK (Homo sapiens, UniProt P43405)", "assay": "SelectScreen kinase profiling, ZLYTE", "format": "biochemical", "excerpt": "as §1"}, "TAOK2 (TAO1)": {"target": "TAOK2 (TAO1) (Homo sapiens, UniProt Q9UL54)", "assay": "SelectScreen kinase profiling, ZLYTE", "format": "biochemical", "excerpt": "as §1"}, "TEK (Tie2)": {"target": "TEK (Tie2) (Homo sapiens, UniProt Q02763)", "assay": "SelectScreen kinase profiling, ZLYTE", "format": "biochemical", "excerpt": "as §1"}, "TXK": {"target": "TXK (Homo sapiens, UniProt P42681)", "assay": "SelectScreen kinase profiling, ZLYTE", "format": "biochemical", "excerpt": "as §1"}, "TBK1": {"target": "TBK1 (Homo sapiens, UniProt Q9UHD2)", "assay": "SelectScreen kinase profiling, ZLYTE", "format": "biochemical", "conditions": "TBK1, 10 µM", "excerpt": "as §1"}, "MAPK10 (JNK3)": {"target": "MAPK10 (JNK3) (Homo sapiens, UniProt P53779)", "assay": "SelectScreen kinase profiling, ZLYTE", "format": "biochemical"}, "ADCK3": {"target": "ADCK3 (Homo sapiens, UniProt Q8NI60)", "assay": "SelectScreen kinase profiling, LanthaScreen binding", "conditions": "ADCK3, 10 µM", "excerpt": "(§2) Kinase Technology % Inhibition Avg Kinase Technology % Inhibition Avg\n(§3) STK23 (MSSK1) ZLYTE 59 TGFBR1 (ALK5) LanthaScreen 85\n(§4) STK24 (MST3) ZLYTE 85 TGFBR2 LanthaScreen 77\n(§5) STK25 (YSK1) ZLYTE 45 TLK1 LanthaScreen 4\n(§6) STK3 (MST2) ZLYTE 77 TLK2 LanthaScreen 33\n(§7) STK32B (YANK2) LanthaScreen 61 TNIK LanthaScreen 15\n(§8) STK32C (YANK3) LanthaScreen 62 TNK1 ZLYTE 94\n(§9) STK33 LanthaScreen 81 TNK2 (ACK) LanthaScreen 71\n(§10) STK38 (NDR) LanthaScreen 85 TTK LanthaScreen 54\n(§11) STK38L (NDR2) LanthaScreen 59 TXK ZLYTE 94\n(§12) STK39 (STLK3) LanthaScreen 38 TYK2 ZLYTE 99\n(§13) STK4 (MST1) ZLYTE 93 TYRO3 (RSE) ZLYTE 92\n(§14) SYK ZLYTE 98 ULK1 LanthaScreen 80\n(§15) TAOK1 LanthaScreen 82 ULK2 LanthaScreen 56\n(§16) TAOK2 (TAO1) ZLYTE 87 ULK3 LanthaScreen 5\n(§17) TAOK3 (JIK) LanthaScreen 25 VRK2 LanthaScreen 32\n(§18) TBK1 ZLYTE 99 WEE1 LanthaScreen 75\n(§19) TEC LanthaScreen -9 WNK1 LanthaScreen 2\n(§20) TEK (Tie2) ZLYTE 99 WNK2 LanthaScreen 1\n(§21) TEK (TIE2) R849W LanthaScreen -5 WNK3 LanthaScreen 7\n(§22) TEK (TIE2) Y897S ZLYTE 80 ZAK LanthaScreen 77\n(§23) TESK1 LanthaScreen 37 ZAP70 ZLYTE 24\n(§24) cleavage (Thermo Fisher Scientific, USA)"}, "MAPKAPK2": {"target": "MAPKAPK2 (Homo sapiens, UniProt P49137)", "assay": "SelectScreen kinase profiling, ZLYTE", "format": "biochemical", "conditions": "MAPKAPK2, 10 µM"}, "PTK6 (Brk)": {"target": "PTK6 (Brk) (Homo sapiens, UniProt Q13882)", "assay": "SelectScreen kinase profiling, ZLYTE", "format": "biochemical", "excerpt": "as §2, §3, §4, §5, §6, §7, §8, §9, §10, §11, §12, §13, §14, §15, §16, §17, §18, §19, §20, §21, §22, §23, §24"}, "PLK2": {"target": "PLK2 (Homo sapiens, UniProt Q9NYY3)", "assay": "SelectScreen kinase profiling, ZLYTE", "format": "biochemical", "conditions": "PLK2, 10 µM", "excerpt": "as §2, §3, §4, §5, §6, §7, §8, §9, §10, §11, §12, §13, §14, §15, §16, §17, §18, §19, §20, §21, §22, §23, §24"}, "SRPK1": {"target": "SRPK1 (Homo sapiens, UniProt Q96SB4)", "assay": "SelectScreen kinase profiling, ZLYTE", "format": "biochemical", "conditions": "SRPK1, 10 µM", "excerpt": "as §2, §3, §4, §5, §6, §7, §8, §9, §10, §11, §12, §13, §14, §15, §16, §17, §18, §19, §20, §21, §22, §23, §24"}, "GRK5": {"target": "GRK5 (Homo sapiens, UniProt P34947)", "assay": "SelectScreen kinase profiling, ZLYTE", "format": "biochemical", "conditions": "GRK5, 10 µM", "excerpt": "as §2, §3, §4, §5, §6, §7, §8, §9, §10, §11, §12, §13, §14, §15, §16, §17, §18, §19, §20, §21, §22, §23, §24"}, "RAF1 (cRAF) Y340D Y341D": {"target": "RAF1 (cRAF) Y340D Y341D (Homo sapiens, UniProt P04049, Y340D/Y341D)", "assay": "SelectScreen kinase profiling, ZLYTE", "format": "biochemical", "excerpt": "as §2, §3, §4, §5, §6, §7, §8, §9, §10, §11, §12, §13, §14, §15, §16, §17, §18, §19, §20, §21, §22, §23, §24"}, "PDGFRA T674I": {"target": "PDGFRA T674I (Homo sapiens, UniProt P16234, T674I)", "assay": "SelectScreen kinase profiling, ZLYTE", "format": "biochemical", "excerpt": "as §2, §3, §4, §5, §6, §7, §8, §9, §10, §11, §12, §13, §14, §15, §16, §17, §18, §19, §20, §21, §22, §23, §24"}, "BTK": {"target": "BTK (Homo sapiens, UniProt Q06187)", "assay": "SelectScreen kinase profiling, ZLYTE", "format": "biochemical", "excerpt": "as §2, §3, §4, §5, §6, §7, §8, §9, §10, §11, §12, §13, §14, §15, §16, §17, §18, §19, §20, §21, §22, §23, §24"}, "EPHA4": {"target": "EPHA4 (Homo sapiens, UniProt P54764)", "assay": "SelectScreen kinase profiling, ZLYTE", "format": "biochemical", "conditions": "EPHA4, 10 µM"}, "GRK4": {"target": "GRK4 (Homo sapiens, UniProt P32298)", "assay": "SelectScreen kinase profiling, ZLYTE", "format": "biochemical", "conditions": "GRK4, 10 µM"}, "MAPK9 (JNK2)": {"target": "MAPK9 (JNK2) (Homo sapiens, UniProt P45984)", "assay": "SelectScreen kinase profiling, ZLYTE", "format": "biochemical"}, "MAP3K9 (MLK1)": {"target": "MAP3K9 (MLK1) (Homo sapiens, UniProt P80192)", "assay": "SelectScreen kinase profiling, ZLYTE", "format": "biochemical"}}}
{"smiles": "O=C(c1ccc(/C=C/c2n[nH]c3ccccc23)cc1)N1CCNCC1", "note": "[KW-2449]", "values": [{"measurement": "inhibition at 10 µM", "setting": "MYO3B (MYO3 beta)", "value": 88, "unit": "%"}, {"measurement": "inhibition at 10 µM", "setting": "RPS6KA6 (RSK4)", "value": 97, "unit": "%"}, {"measurement": "inhibition at 10 µM", "setting": "BMPR2", "value": 113, "unit": "%"}, {"measurement": "inhibition at 10 µM", "setting": "CSK", "value": 71, "unit": "%"}, {"measurement": "inhibition at 10 µM", "setting": "TYK2", "value": 99, "unit": "%"}, {"measurement": "inhibition at 10 µM", "setting": "STK24 (MST3)", "value": 85, "unit": "%"}, {"measurement": "inhibition at 10 µM", "setting": "TEK (TIE2) Y897S", "value": 80, "unit": "%"}, {"measurement": "inhibition at 10 µM", "setting": "STK4 (MST1)", "value": 93, "unit": "%"}, {"measurement": "inhibition at 10 µM", "setting": "TNK1", "value": 94, "unit": "%"}, {"measurement": "inhibition at 10 µM", "setting": "STK3 (MST2)", "value": 77, "unit": "%"}, {"measurement": "inhibition at 10 µM", "setting": "STK25 (YSK1)", "value": 45, "unit": "%"}, {"measurement": "inhibition at 10 µM", "setting": "TYRO3 (RSE)", "value": 92, "unit": "%"}, {"measurement": "inhibition at 10 µM", "setting": "SYK", "value": 98, "unit": "%"}, {"measurement": "inhibition at 10 µM", "setting": "TAOK2 (TAO1)", "value": 87, "unit": "%"}, {"measurement": "inhibition at 10 µM", "setting": "TEK (Tie2)", "value": 99, "unit": "%"}, {"measurement": "inhibition at 10 µM", "setting": "TXK", "value": 94, "unit": "%"}, {"measurement": "inhibition at 10 µM", "setting": "TBK1", "value": 99, "unit": "%"}, {"measurement": "inhibition at 10 µM", "setting": "MAPK10 (JNK3)", "value": 59, "unit": "%"}, {"measurement": "inhibition at 10 µM", "setting": "ADCK3", "value": -2, "unit": "%"}, {"measurement": "inhibition at 10 µM", "setting": "MAPKAPK2", "value": 28, "unit": "%"}, {"measurement": "inhibition at 10 µM", "setting": "PTK6 (Brk)", "value": 71, "unit": "%"}, {"measurement": "inhibition at 10 µM", "setting": "PLK2", "value": 35, "unit": "%"}, {"measurement": "inhibition at 10 µM", "setting": "SRPK1", "value": 31, "unit": "%"}, {"measurement": "inhibition at 10 µM", "setting": "GRK5", "value": 17, "unit": "%"}, {"measurement": "inhibition at 10 µM", "setting": "RAF1 (cRAF) Y340D Y341D", "value": 74, "unit": "%"}, {"measurement": "inhibition at 10 µM", "setting": "PDGFRA T674I", "value": 97, "unit": "%"}, {"measurement": "inhibition at 10 µM", "setting": "BTK", "value": 99, "unit": "%"}, {"measurement": "inhibition at 10 µM", "setting": "EPHA4", "value": 83, "unit": "%"}, {"measurement": "inhibition at 10 µM", "setting": "GRK4", "value": 61, "unit": "%"}, {"measurement": "inhibition at 10 µM", "setting": "MAPK9 (JNK2)", "value": 87, "unit": "%"}, {"measurement": "inhibition at 10 µM", "setting": "MAP3K9 (MLK1)", "value": 102, "unit": "%"}]}
